Reference: patent publication US5475021A, “Compounds and compositions for inhibition of cyclooxygenase activity” (Vanderbilt University, priority 1993, dated 1995)
Where two headings read alike, the source gives them in different places. One block for each molecule: values may come before it.

Columns and labels:
[1] = target: T1, holo PGHS (cyclooxygenase activity) (Ovis aries, UniProt P05979); assay: Time dependent inactivation of cyclooxygenase activity; type: biochemical, ram (seminal vesicles); details: enzyme 0.25 μM; for Oxygen Consumption, T = 0: control 221; for Oxygen Consumption, T = 30: T = 30 (min), control 210; for Oxygen Consumption, T = 60: control 211
T1 sequence (P05979 25-600): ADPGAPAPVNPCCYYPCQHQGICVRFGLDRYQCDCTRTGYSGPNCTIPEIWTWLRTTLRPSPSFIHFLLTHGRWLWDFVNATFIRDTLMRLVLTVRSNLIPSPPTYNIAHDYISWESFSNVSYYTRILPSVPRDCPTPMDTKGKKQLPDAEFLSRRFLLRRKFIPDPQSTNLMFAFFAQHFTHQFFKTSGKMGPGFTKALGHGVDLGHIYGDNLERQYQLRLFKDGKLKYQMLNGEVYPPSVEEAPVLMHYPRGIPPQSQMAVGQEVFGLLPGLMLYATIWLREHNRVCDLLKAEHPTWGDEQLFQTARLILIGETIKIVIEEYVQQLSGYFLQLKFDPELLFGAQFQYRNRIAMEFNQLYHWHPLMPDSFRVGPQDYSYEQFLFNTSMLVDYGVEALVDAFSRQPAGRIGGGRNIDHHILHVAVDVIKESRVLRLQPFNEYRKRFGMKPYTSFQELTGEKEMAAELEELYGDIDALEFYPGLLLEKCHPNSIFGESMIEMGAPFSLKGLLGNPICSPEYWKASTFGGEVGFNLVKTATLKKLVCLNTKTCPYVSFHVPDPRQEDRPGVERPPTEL
Procedure: (§1) PGHS was purified from ram seminal vesicles.
(§2) Oxygen consumption was measured at 37° C. with a Gilson model 5/6 oxygraph equipped with a clark electrode and a thermostatted cuvette. Enzyme aliquots were added to 100 mM Tris-HCl at pH 8 containing 500 μM phenol and […] hematin. Oxygen uptake was initiated by the addition of 100 mM sodium arachidonate, and the initial reaction velocity was determined from the linear portion of the oxygen uptake curve.
A reaction mixture containing a 100 fold excess of the inhibitor(versus the enzyme concentration) (from a 10 mM stock in DMSO) and holo PGHS (5.3 mg/mL) (reconstituted with one equivalent of hematin) was incubated in a eppendorf tube at room temperature. Aliquots of the incubation mixture, at time intervals of t=0, 30 and 60 min were added to the oxygraph cell already containing 1.25 mL Tris HCL, 100 mM, pH 8, at 37° C., 500 μM phenol and 25 μL of 50 μM hematin. The cyclooxygenase reaction was initiated by the addition of 13 μL of 10 mM sodiumarachidonate in 10% MeOH (final concentration of AA was 100 μM). The oxygen consumption was measured from the linear portion of the O2 uptake curve.

[2] = target: T2, Holo Prostaglandin Endoperoxide Synthase (cyclooxygenase activity) (Ovis aries, UniProt P05979); assay: Instantaneous inactivation of the cyclooxygenase activity of holo PGHS (oxygen consumption); type: biochemical, ram (seminal vesicles); details: for IC50: enzyme 0.25 μM, oxygen consumption
T2 construct: PGHS was purified from ram seminal vesicles; from tissue; host or cells: ram seminal vesicles
T2 sequence (P05979 25-600): T1 sequence (P05979 25-600)
Procedure: as §1, §2
The reaction mixture was allowed to reconstitute for 1 min and then varying inhibitor concentration were added to the reaction mixture. As quickly as possible, the cyclooxygenase reaction was initiated by the addition of 100 mM sodium arachidonate. […]

[3] = tested on: mouse; details: doses much below those required by indomethacin; cited from earlier work
[4] = tested on: cyclooxygenase; details: cited from earlier work
[5] = tested on: guinea pigs; details: doses much below those required by indomethacin; cited from earlier work
[6] = tested on: holo PGHS; details: Ser 530 in sheep (Ser 529 in humans); cited from earlier work
[7] = target: T3, PGHS (cyclooxygenase activity) (Ovis aries, UniProt P05979); assay: IC50 for inactivation of cyclooxygenase activity of PGHS after 30 min incubation; type: biochemical, ram (seminal vesicles)
T3 construct: PGHS was purified from ram seminal vesicles; from tissue; host or cells: ram seminal vesicles
T3 sequence (P05979 25-600): T1 sequence (P05979 25-600)
Procedure: as §1, §2
Varying inhibitor concentrations were incubated with reconstituted holo PGHS (final concentration in the oxygraph cell was 250 nM) at room temperature for 30 min. Aliquots of this incubation mixture were added to the oxygraph cell containing 100 mM Tris-HCl at pH 8 with 500 μm of phenol and 1 μM hematin. The reaction mixture was allowed to reconstitute for 1 min and the cyclooxygenase reaction was initiated by the addition of 100 mM sodium arachidonate. (Table 1)
In all experiments the enzyme concentrations was 0.25 μM.

[8] = tested on: PGHS protein; assay: Mechanistic studies: conformational change in the PGHS protein
[9] = cited from earlier work
[10] = target: T4, cyclooxygenase activity of PGHS (Ovis aries, UniProt P05979); assay: Inhibition of cyclooxygenase activity of PGHS by analog 2; type: biochemical
T4 sequence (P05979 25-600): T1 sequence (P05979 25-600)
Excerpt: Preliminary structure-activity studies on compounds with structural similarity indicate the position of oxygen on the omega side chain and the stereochemistry on the oxobicycloheptane ring as the governing factors in the inhibition.
The basis for the inhibitory activity of a given NSAID depends on the interaction of the NSAID with the active site of the enzyme it inhibits. A working model for the active site of fatty acid cyclooxygenase with the pattern recognition of known inhibitors as well as conformational minimizations of the natural substrate AA has been constructed. The Squibb group recently described a novel series of 7-oxabicycloheptylpro stanoic acid derivatives that inhibit AA-induced platelet aggregation and AA oxygenation by platelet and bovine seminal microsomes. […]

[11] = target: T5, holo PGHS (peroxidase activity) (Ovis aries, UniProt P05979); assay: Instantaneous inactivation of peroxidase activity (guaiacol oxidation); type: biochemical, ram (seminal vesicles); details: for IC50: enzyme 0.25 μM
T5 construct: PGHS was purified from ram seminal vesicles; from tissue; host or cells: ram seminal vesicles
T5 sequence (P05979 25-600): T1 sequence (P05979 25-600)
Procedure: as §1
Enzyme aliquots were added to 100 mM Tris HCl (pH 8) containing […] heme, 500 μM guaiacol in disposible cuvettes. Reaction was initiated by the addition of 400 μM H2 O2.
This reaction mixture was treated with a given concentration of the inhibitor and then as quickly as possible the peroxidase reaction was initiated by the addition of 0.4 mM H2 O2. The initial rates of oxidation were measured for 20 sec at a repeat rate of 1 second. (Table 4)

[12] = tested on: PGHS (cyclooxygenase activity); assay: Inactivation of cyclooxygenase activity of PGHS by cysteine specific reagents; type: biochemical
Excerpt: (§3) Thiyl radicals (as reviewed in Shoeneich, 1992) can be potentially generated from cysteines present in PGHS, in the catabolism of arachidonic acid. […] Site-directed mutagenesis experiments to mutate these cysteines to serines and their corresponding effect on prostaglandin biosynthesis are presently being carried out.

[13] = tested on: holo PGHS; assay: Inactivation of holo PGHS; type: biochemical
Excerpt: as §3

[14] = tested on: PGHS (peroxidase activity); assay: Inactivation of peroxidase activity of PGHS by cysteine specific reagents; type: biochemical
Excerpt: as §3

[15] = enzyme 0.25 μM, 30 min incubation with inhibitor, read-out: IC50 for inactivation of cyclooxygenase activity of PGHS
[16] = read-out: IC50 (aspirin analogs 44 and 45)

Molecule: N-11-(Maleimido)undecanoic acid [Compound 5]
Oxygen Consumption, T = 0 ([1]; inhibitor 10 μM): 207 µM/min
Oxygen Consumption, T = 30 ([1]; inhibitor 10 μM): 178 µM/min
Oxygen Consumption, T = 60 ([1]; inhibitor 10 μM, T = 60 (min)): 81 µM/min
IC50 [2]: 37 µM

Molecule: CCCCCCOCC1C2CCC(O2)C1CC=CCCCC(=O)O (centres unmarked) [analog 1]
prevention of AA-induced sudden death [3]: prevents AA-induced sudden death in the mouse
inhibition of cyclooxygenase activity in vitro [4]: inhibition of cyclooxygenase activity in vitro
prevention of AA-induced changes in lung mechanics [5]: AA-induced changes in lung mechanics in guinea pigs at doses much below those required for similar effects by indomethacin

Molecule: CC(=O)Oc1ccccc1C(=O)O [Aspirin]
acylation of Ser 530 of PGHS [6]: inactivates the cyclooxygenase activity of holo PGHS by regioselective acylation of Ser 530

Molecule: CC(=O)Oc1cc(N2C(=O)C=CC2=O)ccc1C(=O)O [Compound 44]
Inhibition of cyclooxygenase at 200 μM (footnote a, Table 2) ([7]; 200 μM, 30 min incubation): No significant inhibition observed
IC50 [7, 16]: > 200 µM

Molecule: CC(=O)Oc1ccc(N2C(=O)C=CC2=O)cc1C(=O)O [Compound 45]
IC50 [7, 16]: 29 µM

Molecule: CCCCCCCCN1C(=O)C=CC1=O [Compound 8]
IC50 [7, 15]: 250 µM

Molecule: O=C(O)CCCCCCN1C(=O)C=CC1=O [Compound 2, N-7-(Maleimido)heptanoic acid]
Oxygen Consumption, T = 0 ([1]; inhibitor 16 μM): 195 µM/min
Oxygen Consumption, T = 30 ([1]; inhibitor 16 μM): 142 µM/min
Oxygen Consumption, T = 60 ([1]; inhibitor 16 μM, T = 60 (min)): 106 µM/min
IC50 [2]: 570 µM
IC50 [11]: > 800 µM
remaining activity at 800 µM ([11]; pH 8, at 800 μM): 81%

Molecule: CCN1C(=O)C=CC1=O [NEM, N-ethylmaleimide]
inactivation of cyclooxygenase activity by cysteine specific reagent [12]: time- and concentration-dependent inactivation
inactivation of holo PGHS [13]: inactivates holo
inactivation of peroxidase activity by cysteine specific reagent [14]: time- and concentration-dependent inactivation

Molecule: O=C(O)CCCCCCCN1C(=O)CCC1=O [Compound 39, N-8-(Succinimido)octanoic acid]
instantaneous inactivation of cyclooxygenase activity [2]: did not inactivate PGHS
inhibition of the enzyme at 500 fold excess ([2]; 500 fold excess): did not inhibit the enzyme, even at a 500 fold excess
instantaneous inactivation of cyclooxygenase activity ([2]; listed as corresponding succinimide): did not display any inactivation at analogous concentrations and at higher concentrations

Molecule: CCCCCCCCCN1C(=O)C=CC1=O [Compound 9]
IC50 [7, 15]: 50 µM

Molecule: 2-[2-(N-Maleimidoethoxy)]benzoic acid [Compound 7]
Oxygen Consumption, T = 0 ([1]; inhibitor 16 μM): 180 µM/min
Oxygen Consumption, T = 30 ([1]; inhibitor 16 μM): 27 µM/min
Oxygen Consumption, T = 60 (symbol) ([1]; inhibitor 16 μM, T = 60 (min)): --b
IC50 [2]: 140 µM

Molecule: CC(=O)n1ccnc1 [N-acetylimidazole]
acylation of Ser 530 of PGHS [6]: did not result in regioselective acetylation

Molecule: O=C(O)c1ccccc1OCCN1C(=O)C=CC1=O [Compound 13]
IC50 [7, 15]: 40 µM

Molecule: O=C(O)CCCCCN1C(=O)C=CC1=O [Compound 1, N-6-(Maleimido)hexanoic acid]
Oxygen Consumption, T = 0 ([1]; inhibitor 16 μM): 212 µM/min
Oxygen Consumption, T = 30 ([1]; inhibitor 16 μM): 205 µM/min
Oxygen Consumption, T = 60 ([1]; inhibitor 16 μM, T = 60 (min)): 204 µM/min
IC50 [2]: > 800 µM
IC50 [11]: > 800 µM

Continued, in another order:

IC50 [7, 15]: 9 µM
Molecule: Cc1ccccc1CN1C(=O)C=CC1=O [Compound 11]

time-dependent inhibition of cyclooxygenase activity [10]: potent time-dependent inhibitor
IC50 ([10]; enzyme concentration 140 nM): 80 nM
IC100 ([10]; enzyme concentration 140 nM, read-out: concentration with complete inhibition): 0.15 µM
Molecule: CCCCCCOCC1C2CCC(O2)C1CC=CCCC(C)(C)C(=O)O (centres unmarked) [analog 2]
conformational change in the PGHS protein [8]: induces a conformational change in the PGHS protein
inhibition of cyclooxygenase activity in vitro [4]: displays the same activities as analog 1
duration of action in vivo, relative to analog 1 [9]: longer duration of action in vivo

IC50 [7, 15]: 27 µM
Molecule: CCCCCCCCCCN1C(=O)C=CC1=O [Compound 10]

IC50 [7, 15]: 12 µM
Molecule: O=C(O)c1ccc(CN2C(=O)C=CC2=O)cc1 [Compound 12]

instantaneous inactivation of cyclooxygenase activity [2]: failure
Molecule: O=C(O)c1ccccc1OCCN1C(=O)C=CC1=O [Compound 6 (Example 1), 2-[2-(N-Maleimidoethoxy)]benzoic acid]

Oxygen Consumption, T = 0 ([1]; inhibitor 10 μM): 203 µM/min
Oxygen Consumption, T = 30 ([1]; inhibitor 10 μM): 121 µM/min
Oxygen Consumption, T = 60 ([1]; inhibitor 10 μM, T = 60 (min)): 68 µM/min
IC50 [2]: 26 µM
Molecule: O=C(O)CCCCCCCCN1C(=O)C=CC1=O [Compound 4, 9-(Maleimido)-1-nonanoic acid]
